For 28 molecules, EC50 results are on record in US20230108906A1, “SUBSTITUTED BICYCLIC AND TRICYCLIC UREAS AND AMIDES, ANALOGUES THEREOF, AND METHODS USING SAME” (Arbutus Biopharma Corporation, priority 2019, published 2023).

pEC50: −log10 of the molar value.

One assay has as its system HBV rcDNA in HepDE19 cells. Kind of assay: HepDE19 assay with bDNA quantitation of HBV rcDNA. Conditions: Hepatitis B virus, HepDE19, 168 h, inhibition of rcDNA formation in HepDE19 cells (HepG2 derived), Tet-free medium, 7 day incubation, Quantigene 2.0 bDNA readout, top concentration 25 μM; read-out: DE-19bDNA EC50. The format is cell-based, hepatitis B virus (HBV). The procedure, abridged: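 Cytotoxicity run on replicate plates (5,000 cells/well, 4 days, ATP luminescence, CC50), while antiviral plates (50,000 cells/well) received compound for 7 days after tetracycline withdrawal to induce HBV replication. Top dose 25 μM, 8 points, 0.5% DMSO; rcDNA by branched-DNA assay, % inhibition fitted (4-parameter) for EC50 and EC90.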
As for `CCN(C(=O)Nc1ccc(F)c(C#N)c1)C1COCc2[nH]c(=O)c3ccc(F)cc3c21` (stereo not shown) [Compound 78, 3-(3-Cyano-4-fluorophenyl)-1-ethyl-1-(9-fluoro-6-oxo-1,4,5,6-tetrahydro-2H-pyrano[3,4-c]isoquinolin-1-yl)urea], the pEC50 is 7.40.

As to `CN(C(=O)Nc1ccc(F)c(Cl)c1)C1CCCc2[nH]c(=O)c3ccccc3c21` (racemic) [Compound 6, 3-(3-Chloro-4-fluorophenyl)-1-methyl-1-(6-oxo-1,2,3,4,5,6-hexahydrophenanthridin-1-yl)urea], the pEC50 was 7.10.

On to `CN(C(=O)Nc1ccc(F)c(Cl)c1)C1CCCc2[nH]c(=O)c3c(c21)COCC3` (stereo not shown) [Compound 80, 3-(3-Chloro-4-fluorophenyl)-1-methyl-1-(5-oxo-3,4,5,6,7,8,9,10-octahydro-1H-pyrano[4,3-c]quinolin-10-yl)urea], for which the pEC50 is 5.55.

With `CCN(C(=O)Nc1ccc(F)c(C)c1)C1COCc2[nH]c(=O)c3ccc(F)cc3c21` (stereo not shown) [Compound 76, 1-Ethyl-3-(4-fluoro-3-methylphenyl)-1-(9-fluoro-6-oxo-1,4,5,6-tetrahydro-2H-pyrano[3,4-c]isoquinolin-1-yl)urea], the pEC50 is 8.00.

For `CCN(C(=O)Nc1ccc(F)c(C#N)c1)C1COCc2[nH]c(=O)c3cc(Cl)ccc3c21` (stereo not shown) [Compound 66, 1-(8-Chloro-6-oxo-1,4,5,6-tetrahydro-2H-pyrano[3,4-c]isoquinolin-1-yl)-3-(3-cyano-4-fluorophenyl)-1-ethylurea], the pEC50 is 7.30.

As for `CN(C(=O)Nc1ccc(F)c(C(F)F)c1)C1COCc2nc(NCCN)c3cc(F)c(F)cc3c21` (racemic) [Compound 239, 1-(6-((2-Aminoethyl)amino)-8,9-difluoro-1,4-dihydro-2H-pyrano[3,4-c]isoquinolin-1-yl)-3-(3-(difluoromethyl)-4-fluorophenyl)-1-methylurea], the pEC50 was 6.52.

Regarding `CN(C(=O)Nc1ccc(F)c(C(F)F)c1)[C@H]1COCc2[nH]c(=O)c3cc(F)c(F)cc3c21` (single isomer, unassigned) [Compound 125], the pEC50 is 6.31.

As to `CN(C(=O)Nc1ccc(F)c(C(F)F)c1)[C@@H]1COCc2[nH]c(=O)c3cc(F)c(F)cc3c21` (single isomer, unassigned) [Compound 126], the pEC50 was 8.00.

For the molecule `O=C(Nc1ccc(F)c(Cl)c1)N[C@@H]1COCc2[nH]c(=O)c3cc(F)ccc3c21` (single isomer, unassigned) [Compound 67], the negative-log EC50 (pEC50) was 7.05.

As to `CCN(C(=O)Nc1ccc(F)c(Cl)c1)C1COCc2[nH]c(=O)c3cc(F)ccc3c21` (stereo not shown) [Compound 44, 3-(3-Chloro-4-fluorophenyl)-1-ethyl-1-(8-fluoro-6-oxo-1,4,5,6-tetrahydro-2H-pyrano[3,4-c]isoquinolin-1-yl)urea], the pEC50 was 8.00.

The same assay, now with this note: inhibition of rcDNA formation in HepDE19 cells (HepG2 derived), Tet-free medium, 7 day incubation, Quantigene 2.0 bDNA readout, top concentration 25 μM; read-out: DE-19bDNA EC50.
With `CN(C(=O)Nc1ccc(F)c(Cl)c1)C1COCc2nc(NCCO)c3cc(F)c(F)cc3c21` (single isomer, unassigned) [Compound 246, 3-(3-Chloro-4-fluorophenyl)-1-(8,9-difluoro-6-((2-hydroxyethyl)amino)-1,4-dihydro-2H-pyrano[3,4-c]isoquinolin-1-yl)-1-methylurea], the pEC50 is 7.70.

As for `CN(C(=O)N1Cc2ccc(Cl)cc2C1)C1CNCc2[nH]c(=O)c3cc(F)c(F)cc3c21` (single isomer, unassigned) [Compound 227, 5-Chloro-N-(8,9-difluoro-6-oxo-1,2,3,4,5,6-hexahydrobenzo[c][1,7]naphthyridin-1-yl)-N-methylisoindoline-2-carboxamide], the pEC50 was 4.92.

Consider `CC(C)CN(C(=O)Nc1ccc(F)c(C#N)c1)C1COCc2[nH]c(=O)c3cc(F)ccc3c21` (single isomer, unassigned) [Compound 116, 3-(3-Cyano-4-fluorophenyl)-1-(8-fluoro-6-oxo-1,4,5,6-tetrahydro-2H-pyrano[3,4-c]isoquinolin-1-yl)-1-isobutylurea], for which the pEC50 was 6.64.

Take `CN(C(=O)N1Cc2ccc(Br)cc2C1)C1CNCc2[nH]c(=O)c3cc(F)c(F)cc3c21` (single isomer, unassigned) [Compound 228, 5-Bromo-N-(8,9-difluoro-6-oxo-1,2,3,4,5,6-hexahydrobenzo[c][1,7]naphthyridin-1-yl)-N-methylisoindoline-2-carboxamide]: the pEC50 is 4.82.

Take `CNc1nc2c(c3cc(F)c(F)cc13)C(N(C)C(=O)Nc1ccc(F)c(C(F)F)c1)COC2` (single isomer, unassigned) [Compound 236, 1-(8,9-Difluoro-6-(methylamino)-1,4-dihydro-2H-pyrano[3,4-c]isoquinolin-1-yl)-3-(3-(difluoromethyl)-4-fluorophenyl)-1-methylurea]: the negative-log EC50 (pEC50) is 8.00.

On to `CN(C(=O)N1Cc2ccc(F)cc2C1)C1CNCc2[nH]c(=O)c3cc(F)c(F)cc3c21` (single isomer, unassigned) [Compound 224, N-(8,9-Difluoro-6-oxo-1,2,3,4,5,6-hexahydrobenzo[c][1,7]naphthyridin-1-yl)-5-fluoro-N-methylisoindoline-2-carboxamide], for which the pEC50 is no more than 4.60.

Consider `CN(C(=O)Nc1ccc(F)c(C#N)c1)C1CSCc2[nH]c(=O)c3cc(F)ccc3c21` (single isomer, unassigned) [Compound 186, 3-(3-Cyano-4-fluorophenyl)-1-(8-fluoro-6-oxo-1,4,5,6-tetrahydro-2H-thiopyrano[3,4-c]isoquinolin-1-yl)-1-methylurea], for which the pEC50 is 7.22.

For the molecule `CN1Cc2[nH]c(=O)c3cc(F)ccc3c2C(N(C)C(=O)Nc2ccc(F)c(Cl)c2)C1` (single isomer, unassigned) [Compound 156, 3-(3-Chloro-4-fluorophenyl)-1-(8-fluoro-3-methyl-6-oxo-1,2,3,4,5,6-hexahydrobenzo[c][1,7]naphthyridin-1-yl)-1-methylurea], the pEC50 is 6.38.

Consider `CN(C(=O)Nc1ccc(F)c(Cl)c1)C1CCCc2[nH]c(=O)c3ccccc3c21` (single isomer, unassigned) [Compound 16, 3-(3-Chloro-4-fluorophenyl)-1-methyl-1-(6-oxo-1,2,3,4,5,6-hexahydrophenanthridin-1-yl)urea], for which the pEC50 was 6.12.

For the molecule `CN(C(=O)Nc1ccc(F)c(Cl)c1)C1C[S+]([O-])Cc2[nH]c(=O)c3cc(F)c(F)cc3c21` (single isomer, unassigned) [Compound 208, 3-(3-Chioro-4-fluorophenyl)-1-(8,9-difluoro-3-oxido-6-oxo-1,4,5,6-tetrahydro-2H-thiopyrano[3,4-c]isoquinolin-1-yl)-1-methylurea], the pEC50 was 5.07.

Regarding `CC(C)CN(C(=O)Nc1ccc(F)c(C#N)c1)C1COCc2[nH]c(=O)c3cc(F)ccc3c21` (single isomer, unassigned) [Compound 115, 3-(3-Cyano-4-fluorophenyl)-1-(8-fluoro-6-oxo-1,4,5,6-tetrahydro-2H-pyrano[3,4-c]isoquinolin-1-yl)-1-isobutylurea], the pEC50 was 8.00.

For `CNc1nc2c(c3cc(F)c(F)cc13)C(N(C)C(=O)Nc1ccc(F)c(Cl)c1)COC2` (single isomer, unassigned) [Compound 241, 3-(3-Chloro-4-fluorophenyl)-1-(8,9-difluoro-6-(methylamino)-1,4-dihydro-2H-pyrano[3,4-c]isoquinolin-1-yl)-1-methylurea], the pEC50 was 5.62.

In the case of `CN(C(=O)Nc1ccc(F)c(F)c1)C1COCc2[nH]c(=O)c3c(c21)CCOC3` (single isomer, unassigned) [Compound 94, 3-(3,4-Difluorophenyl)-1-methyl-1-(6-oxo-1,2,4,5,6,7,9,10-octahydrodipyrano[3,4-b:4′,3′-d]pyridin-1-yl)urea], the pEC50 is 6.13.

Regarding `CC(C)CN(C(=O)Nc1ccc(F)c(F)c1)C1COCc2[nH]c(=O)c3cc(F)ccc3c21` (single isomer, unassigned) [Compound 99, 3-(3,4-Difluorophenyl)-1-(8-fluoro-6-oxo-2,4,5,6-tetrahydro-1H-pyrano[3,4-c]isoquinolin-1-yl)-1-isobutylurea], the pEC50 is 8.00.

Consider `CN(C(=O)Nc1ccc(F)c(Cl)c1)C1CCCc2[nH]c(=O)c3ccccc3c21` (single isomer, unassigned) [Compound 17, 3-(3-Chloro-4-fluorophenyl)-1-methyl-1-(6-oxo-1,2,3,4,5,6-hexahydrophenanthridin-1-yl)urea], for which the pEC50 was 7.30.

On to `CN(C(=O)Nc1ccc(F)c(Cl)c1)C1COCc2[nH]c(=O)c3c(c21)CCOC3` (single isomer, unassigned) [Compound 92, 3-(3-Chloro-4-fluorophenyl)-1-methyl-1-(6-oxo-1,2,4,5,6,7,9,10-octahydrodipyrano[3,4-b:4′,3′-d]pyridin-1-yl)urea], for which the pEC50 is 6.82.

For `CN(C(=O)N1Cc2ccc(Br)cc2C1)C1CNCc2[nH]c(=O)c3cc(F)c(F)cc3c21` (single isomer, unassigned) [Compound 229, 5-Bromo-N-(8,9-difluoro-6-oxo-1,2,3,4,5,6-hexahydrobenzo[c][1,7]naphthyridin-1-yl)-N-methylisoindoline-2-carboxamide], the pEC50 is 5.17.

Staying with this assay, now noted: read-out: DE-19bDNA EC50; inhibition of rcDNA formation in HepDE19 cells (HepG2 derived), Tet-free medium, 7 day incubation, Quantigene 2.0 bDNA readout, top concentration 25 μM.
For the molecule `CN(C(=O)N1Cc2ccc(C(F)(F)F)cc2C1)C1CNCc2[nH]c(=O)c3cc(F)c(F)cc3c21` (single isomer, unassigned) [Compound 232, N-(8,9-Difluoro-6-oxo-1,2,3,4,5,6-hexahydrobenzo[c][1,7]naphthyridin-1-yl)-N-methyl-5-(trifluoromethyl)isoindoline-2-carboxamide], the pEC50 is 4.70.

The term pEC50 denotes the negative decadic logarithm of the EC50, by convention in mol/L.
